Legend:
Test in all cases: Kinase activity detection (Eurofins)
Format in all cases: biochemical
[1] = biological target: T1, IKKε (Homo sapiens, UniProt Q14164); conditions: ZY0511 1 µM, read-out: Activation rate
T1 construct: purchased Eurofins Pharma Discovery Services (KinaseProfiler)
Procedure: (§1) The activity of ZY0511 against 104 cancer‐related kinases was carried out by Eurofins Pharma Discovery Services (Celle Lévescault, France).

[2] = biological target: T2, ATM (Homo sapiens, UniProt Q13315)
T2 construct: purchased Eurofins Pharma Discovery Services
Procedure: as §1

[3] = biological target: T3, c-RAF (Homo sapiens, UniProt P04049); conditions: ZY0511 1 µM, read-out: Inhibition rate
T3 construct: purchased Eurofins Pharma Discovery Services (KinaseProfiler)
Procedure: as §1

[4] = biological target: T4, Fms (Homo sapiens, UniProt P07333); conditions: ZY0511 1 µM, read-out: Inhibition rate
T4 construct: purchased Eurofins Pharma Discovery Services (KinaseProfiler)
Procedure: as §1

[5] = biological target: T5, TrkA (Homo sapiens, UniProt P04629); conditions: ZY0511 1 µM, read-out: Activation rate
T5 construct: purchased Eurofins Pharma Discovery Services (KinaseProfiler)
Procedure: as §1

[6] = biological target: T6, ErbB4 (Homo sapiens, UniProt Q15303); conditions: ZY0511 1 µM, read-out: Activation rate
T6 construct: purchased Eurofins Pharma Discovery Services (KinaseProfiler)
Procedure: as §1

[7] = biological target: T7, MST3 (Homo sapiens, UniProt Q9Y6E0); conditions: ZY0511 1 µM, read-out: Inhibition rate
T7 construct: purchased Eurofins Pharma Discovery Services (KinaseProfiler)
Procedure: as §1

[8] = biological target: T8, PKCα (Homo sapiens, UniProt P17252); conditions: ZY0511 1 µM, read-out: Activation rate
T8 construct: purchased Eurofins Pharma Discovery Services (KinaseProfiler)
Procedure: as §1

[9] = biological target: T9, EGFR (T790M) (Homo sapiens, UniProt P00533, T790M); conditions: ZY0511 1 µM
T9 construct: purchased Eurofins Pharma Discovery Services (KinaseProfiler)
Procedure: as §1

[10] = biological target: T10, EphA2 (Homo sapiens, UniProt P29317); conditions: ZY0511 1 µM, read-out: Activation rate
T10 construct: purchased Eurofins Pharma Discovery Services (KinaseProfiler)
Procedure: as §1

[11] = biological target: T11, TAK1 (Homo sapiens, UniProt O43318); conditions: ZY0511 1 µM, read-out: Inhibition rate
T11 construct: purchased Eurofins Pharma Discovery Services
Procedure: as §1

[12] = biological target: T12, Axl (Homo sapiens, UniProt P30530); conditions: ZY0511 1 µM, read-out: Activation rate
T12 construct: purchased Eurofins Pharma Discovery Services (KinaseProfiler)
Procedure: as §1

[13] = biological target: T13, MELK (Homo sapiens, UniProt Q14680); conditions: ZY0511 1 µM, read-out: Inhibition rate
T13 construct: purchased Eurofins Pharma Discovery Services
Procedure: as §1

[14] = biological target: T14, EGFR (Homo sapiens, UniProt P00533); conditions: ZY0511 1 µM, read-out: Inhibition rate
T14 construct: purchased Eurofins Pharma Discovery Services (KinaseProfiler)
Procedure: as §1

[15] = biological target: T15, ROCK-I (Homo sapiens, UniProt Q13464); conditions: ZY0511 1 µM, read-out: Inhibition rate
T15 construct: purchased Eurofins Pharma Discovery Services
Procedure: as §1

[16] = biological target: T16, IGF-1R (Homo sapiens, UniProt P08069)
T16 construct: purchased Eurofins Pharma Discovery Services
T16 sequence (P08069 31-1367, species assumed): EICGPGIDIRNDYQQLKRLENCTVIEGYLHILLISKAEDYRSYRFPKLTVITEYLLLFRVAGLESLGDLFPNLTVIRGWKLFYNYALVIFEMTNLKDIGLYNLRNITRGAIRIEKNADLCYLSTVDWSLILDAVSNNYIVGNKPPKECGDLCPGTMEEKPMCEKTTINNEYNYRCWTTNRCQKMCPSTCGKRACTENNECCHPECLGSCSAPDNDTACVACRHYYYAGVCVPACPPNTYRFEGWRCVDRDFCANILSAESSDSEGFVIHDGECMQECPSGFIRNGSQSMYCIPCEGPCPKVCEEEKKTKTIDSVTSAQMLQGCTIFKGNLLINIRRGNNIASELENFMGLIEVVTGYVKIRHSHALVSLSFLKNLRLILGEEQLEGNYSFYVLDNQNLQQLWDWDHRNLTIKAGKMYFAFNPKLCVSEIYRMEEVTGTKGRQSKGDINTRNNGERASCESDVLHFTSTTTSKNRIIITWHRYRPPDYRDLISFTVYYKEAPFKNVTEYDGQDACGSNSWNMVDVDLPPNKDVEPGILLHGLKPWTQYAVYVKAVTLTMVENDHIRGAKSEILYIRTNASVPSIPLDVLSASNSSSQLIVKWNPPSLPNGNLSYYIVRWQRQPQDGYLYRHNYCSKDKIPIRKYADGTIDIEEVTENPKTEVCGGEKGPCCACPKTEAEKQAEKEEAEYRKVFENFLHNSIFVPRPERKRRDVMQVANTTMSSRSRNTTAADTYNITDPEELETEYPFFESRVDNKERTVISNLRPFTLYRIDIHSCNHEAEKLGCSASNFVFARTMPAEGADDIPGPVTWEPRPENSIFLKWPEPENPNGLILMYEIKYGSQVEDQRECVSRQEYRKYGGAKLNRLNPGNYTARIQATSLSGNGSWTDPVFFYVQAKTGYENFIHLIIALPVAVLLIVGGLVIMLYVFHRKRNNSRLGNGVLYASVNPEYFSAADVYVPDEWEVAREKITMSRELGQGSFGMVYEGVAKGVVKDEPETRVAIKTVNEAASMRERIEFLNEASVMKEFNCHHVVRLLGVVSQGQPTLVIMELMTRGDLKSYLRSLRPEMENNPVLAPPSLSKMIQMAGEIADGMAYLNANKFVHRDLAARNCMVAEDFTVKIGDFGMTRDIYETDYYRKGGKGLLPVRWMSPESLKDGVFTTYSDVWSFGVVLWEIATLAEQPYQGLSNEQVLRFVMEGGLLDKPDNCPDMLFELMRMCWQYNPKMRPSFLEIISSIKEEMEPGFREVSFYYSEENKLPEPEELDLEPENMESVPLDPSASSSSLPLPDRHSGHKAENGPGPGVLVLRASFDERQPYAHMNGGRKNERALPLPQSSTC
Procedure: as §1

[17] = biological target: T17, PI3 Kinase (p110α/p85α) (Homo sapiens, UniProt P42336); conditions: ZY0511 1 µM, read-out: Inhibition rate
T17 construct: purchased Eurofins Pharma Discovery Services (KinaseProfiler)
Procedure: as §1

[18] = biological target: T18, CDK1/CyclinB (Homo sapiens, UniProt P06493); conditions: ZY0511 1 µM, read-out: Activation rate
T18 construct: purchased Eurofins Pharma Discovery Services (KinaseProfiler)
Procedure: as §1

[19] = biological target: T19, KDR (Homo sapiens, UniProt P35968); conditions: ZY0511 1 µM, read-out: Inhibition rate
T19 construct: purchased Eurofins Pharma Discovery Services (KinaseProfiler)
Procedure: as §1

[20] = biological target: T20, cKit (Homo sapiens, UniProt P10721); conditions: ZY0511 1 µM, read-out: Activation rate
T20 construct: purchased Eurofins Pharma Discovery Services (KinaseProfiler)
Procedure: as §1

[21] = biological target: T21, PI3 Kinase (p110βγ/p85α) (Homo sapiens, UniProt P42338); conditions: ZY0511 1 µM, read-out: Inhibition rate
T21 construct: purchased Eurofins Pharma Discovery Services (KinaseProfiler)
Procedure: as §1

[22] = biological target: T22, PI3 Kinase (p110α (H1047R)/p85α) (Homo sapiens, UniProt P42336, H1047R); conditions: ZY0511 1 µM, read-out: Inhibition rate
T22 construct: purchased Eurofins Pharma Discovery Services (KinaseProfiler)
Procedure: as §1

[23] = biological target: T23, CDK5/p35 (Homo sapiens, UniProt Q00535); conditions: ZY0511 1 µM, read-out: Inhibition rate
T23 construct: purchased Eurofins Pharma Discovery Services (KinaseProfiler)
Procedure: as §1

[24] = biological target: T24, DDR2 (Homo sapiens, UniProt Q16832); conditions: ZY0511 1 µM, read-out: Inhibition rate
T24 construct: purchased Eurofins Pharma Discovery Services (KinaseProfiler)
Procedure: as §1

[25] = biological target: T25, Flt3 (Homo sapiens, UniProt P36888); conditions: ZY0511 1 µM, read-out: Inhibition rate
T25 construct: purchased Eurofins Pharma Discovery Services (KinaseProfiler)
Procedure: as §1

[26] = biological target: T26, BRK (Homo sapiens, UniProt Q13882); conditions: ZY0511 1 µM, read-out: Inhibition rate
T26 construct: purchased Eurofins Pharma Discovery Services (KinaseProfiler)
Procedure: as §1

[27] = biological target: T27, B-Raf (V599E) (Homo sapiens, UniProt P15056, V600E); conditions: ZY0511 1 µM, read-out: Inhibition rate
T27 construct: purchased Eurofins Pharma Discovery Services (KinaseProfiler)
T27 sequence (P15056 417-766 V600E limits assumed): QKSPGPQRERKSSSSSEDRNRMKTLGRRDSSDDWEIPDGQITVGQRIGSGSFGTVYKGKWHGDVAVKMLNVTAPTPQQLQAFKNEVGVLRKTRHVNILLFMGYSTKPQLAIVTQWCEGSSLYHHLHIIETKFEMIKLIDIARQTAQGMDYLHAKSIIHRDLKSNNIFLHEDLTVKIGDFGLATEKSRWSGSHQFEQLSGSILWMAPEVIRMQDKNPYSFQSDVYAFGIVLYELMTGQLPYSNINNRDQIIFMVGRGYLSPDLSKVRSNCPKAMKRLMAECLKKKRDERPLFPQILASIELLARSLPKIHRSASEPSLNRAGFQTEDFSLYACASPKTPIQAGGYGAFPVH
Procedure: as §1

[28] = biological target: T28, Flt3 (D835Y) (Homo sapiens, UniProt P36888, D835Y); conditions: ZY0511 1 µM, read-out: Inhibition rate
T28 construct: purchased Eurofins Pharma Discovery Services
Procedure: as §1

[29] = biological target: T29, PKCε (Homo sapiens, UniProt Q02156); conditions: ZY0511 1 µM, read-out: Inhibition rate
T29 construct: purchased Eurofins Pharma Discovery Services (KinaseProfiler)
Procedure: as §1

[30] = biological target: T30, cSRC (Homo sapiens, UniProt P12931); conditions: ZY0511 1 µM, read-out: Activation rate
T30 construct: purchased Eurofins Pharma Discovery Services (KinaseProfiler)
Procedure: as §1

[31] = biological target: T31, B-Raf (Homo sapiens, UniProt P15056); conditions: ZY0511 1 µM, read-out: Inhibition rate
T31 construct: purchased Eurofins Pharma Discovery Services (KinaseProfiler)
Procedure: as §1

[32] = biological target: T32, LKB1 (Homo sapiens, UniProt Q15831); conditions: ZY0511 1 µM, read-out: Inhibition rate
T32 construct: purchased Eurofins Pharma Discovery Services (KinaseProfiler)
Procedure: as §1

[33] = biological target: T33, ARK5 (Homo sapiens, UniProt O60285); conditions: ZY0511 1 µM
T33 construct: purchased Eurofins Pharma Discovery Services (KinaseProfiler)
Procedure: as §1

[34] = biological target: T34, DYRK2 (Homo sapiens, UniProt Q92630); conditions: ZY0511 1 µM, read-out: Inhibition rate
T34 construct: purchased Eurofins Pharma Discovery Services (KinaseProfiler)
Procedure: as §1

[35] = biological target: T35, HIPK3 (Homo sapiens, UniProt Q9H422); conditions: ZY0511 1 µM, read-out: Inhibition rate
T35 construct: purchased Eurofins Pharma Discovery Services (KinaseProfiler)
Procedure: as §1

[36] = biological target: T36, ATR/ATRIP (Homo sapiens, UniProt Q13535)
T36 construct: purchased Eurofins Pharma Discovery Services
T36 sequence (Q13535 whole entry): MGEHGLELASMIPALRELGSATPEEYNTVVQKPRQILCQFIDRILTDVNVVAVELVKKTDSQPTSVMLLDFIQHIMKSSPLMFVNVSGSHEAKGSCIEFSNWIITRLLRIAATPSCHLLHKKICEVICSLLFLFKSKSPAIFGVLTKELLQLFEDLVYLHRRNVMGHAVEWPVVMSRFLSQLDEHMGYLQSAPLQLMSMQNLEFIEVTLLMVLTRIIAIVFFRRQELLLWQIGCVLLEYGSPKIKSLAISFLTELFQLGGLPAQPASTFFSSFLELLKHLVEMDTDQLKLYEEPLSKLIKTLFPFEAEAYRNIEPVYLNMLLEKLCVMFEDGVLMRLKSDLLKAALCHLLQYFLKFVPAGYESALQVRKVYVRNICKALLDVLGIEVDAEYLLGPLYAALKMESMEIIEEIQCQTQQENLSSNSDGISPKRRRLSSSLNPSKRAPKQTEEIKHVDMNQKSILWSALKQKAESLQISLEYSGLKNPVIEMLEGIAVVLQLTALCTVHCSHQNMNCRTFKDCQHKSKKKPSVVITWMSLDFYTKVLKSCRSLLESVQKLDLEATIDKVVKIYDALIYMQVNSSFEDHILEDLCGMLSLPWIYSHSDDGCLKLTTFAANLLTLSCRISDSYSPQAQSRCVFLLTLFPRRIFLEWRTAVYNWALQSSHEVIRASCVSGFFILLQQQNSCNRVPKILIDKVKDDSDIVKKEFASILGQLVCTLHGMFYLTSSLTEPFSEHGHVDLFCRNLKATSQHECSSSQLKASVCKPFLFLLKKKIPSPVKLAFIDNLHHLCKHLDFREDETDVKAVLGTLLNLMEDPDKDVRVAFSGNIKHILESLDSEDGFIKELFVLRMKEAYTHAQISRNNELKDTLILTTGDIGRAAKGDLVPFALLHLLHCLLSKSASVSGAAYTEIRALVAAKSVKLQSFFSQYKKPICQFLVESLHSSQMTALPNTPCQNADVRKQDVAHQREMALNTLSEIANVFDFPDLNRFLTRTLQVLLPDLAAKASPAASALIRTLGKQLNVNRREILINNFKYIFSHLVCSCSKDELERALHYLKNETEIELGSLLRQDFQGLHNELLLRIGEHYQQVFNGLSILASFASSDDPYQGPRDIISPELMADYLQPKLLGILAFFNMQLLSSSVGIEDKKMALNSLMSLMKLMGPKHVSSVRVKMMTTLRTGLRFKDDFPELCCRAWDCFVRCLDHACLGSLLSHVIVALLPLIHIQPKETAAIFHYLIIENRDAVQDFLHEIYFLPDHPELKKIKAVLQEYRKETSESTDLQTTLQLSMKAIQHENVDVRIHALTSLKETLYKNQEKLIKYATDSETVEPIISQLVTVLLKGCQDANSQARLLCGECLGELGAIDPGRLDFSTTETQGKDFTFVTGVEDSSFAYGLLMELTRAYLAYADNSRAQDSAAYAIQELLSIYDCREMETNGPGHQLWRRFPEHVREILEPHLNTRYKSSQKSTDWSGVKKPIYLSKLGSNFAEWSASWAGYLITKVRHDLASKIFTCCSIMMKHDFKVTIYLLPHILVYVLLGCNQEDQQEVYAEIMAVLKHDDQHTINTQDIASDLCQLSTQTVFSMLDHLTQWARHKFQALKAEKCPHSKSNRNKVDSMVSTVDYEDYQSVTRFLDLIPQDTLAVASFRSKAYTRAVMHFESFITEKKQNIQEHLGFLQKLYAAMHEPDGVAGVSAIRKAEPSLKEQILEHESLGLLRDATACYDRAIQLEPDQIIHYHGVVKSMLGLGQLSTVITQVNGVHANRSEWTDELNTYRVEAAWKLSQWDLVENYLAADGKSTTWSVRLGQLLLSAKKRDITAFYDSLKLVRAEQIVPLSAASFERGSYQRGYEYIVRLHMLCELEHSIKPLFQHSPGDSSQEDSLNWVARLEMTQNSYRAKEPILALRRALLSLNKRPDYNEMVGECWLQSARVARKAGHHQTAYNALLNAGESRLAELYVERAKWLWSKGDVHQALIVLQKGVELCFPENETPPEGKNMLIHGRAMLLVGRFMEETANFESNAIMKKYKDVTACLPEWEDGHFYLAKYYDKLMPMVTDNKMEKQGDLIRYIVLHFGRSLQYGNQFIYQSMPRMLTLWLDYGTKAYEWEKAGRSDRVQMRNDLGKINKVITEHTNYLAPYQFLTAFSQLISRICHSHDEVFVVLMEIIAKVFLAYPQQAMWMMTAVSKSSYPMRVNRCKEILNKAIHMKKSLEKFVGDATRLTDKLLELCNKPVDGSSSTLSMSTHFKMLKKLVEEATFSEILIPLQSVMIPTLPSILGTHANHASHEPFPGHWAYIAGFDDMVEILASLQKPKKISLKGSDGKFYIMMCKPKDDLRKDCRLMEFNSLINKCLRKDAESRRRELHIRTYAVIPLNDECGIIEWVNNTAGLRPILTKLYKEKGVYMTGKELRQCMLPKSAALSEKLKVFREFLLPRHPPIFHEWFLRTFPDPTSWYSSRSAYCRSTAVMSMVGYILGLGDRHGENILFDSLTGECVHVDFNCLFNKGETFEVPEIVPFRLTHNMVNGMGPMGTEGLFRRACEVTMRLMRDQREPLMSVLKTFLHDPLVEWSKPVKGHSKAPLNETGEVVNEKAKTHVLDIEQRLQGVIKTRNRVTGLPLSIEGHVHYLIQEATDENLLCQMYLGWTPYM
T36 sequence (Q8WXE1 whole entry partner): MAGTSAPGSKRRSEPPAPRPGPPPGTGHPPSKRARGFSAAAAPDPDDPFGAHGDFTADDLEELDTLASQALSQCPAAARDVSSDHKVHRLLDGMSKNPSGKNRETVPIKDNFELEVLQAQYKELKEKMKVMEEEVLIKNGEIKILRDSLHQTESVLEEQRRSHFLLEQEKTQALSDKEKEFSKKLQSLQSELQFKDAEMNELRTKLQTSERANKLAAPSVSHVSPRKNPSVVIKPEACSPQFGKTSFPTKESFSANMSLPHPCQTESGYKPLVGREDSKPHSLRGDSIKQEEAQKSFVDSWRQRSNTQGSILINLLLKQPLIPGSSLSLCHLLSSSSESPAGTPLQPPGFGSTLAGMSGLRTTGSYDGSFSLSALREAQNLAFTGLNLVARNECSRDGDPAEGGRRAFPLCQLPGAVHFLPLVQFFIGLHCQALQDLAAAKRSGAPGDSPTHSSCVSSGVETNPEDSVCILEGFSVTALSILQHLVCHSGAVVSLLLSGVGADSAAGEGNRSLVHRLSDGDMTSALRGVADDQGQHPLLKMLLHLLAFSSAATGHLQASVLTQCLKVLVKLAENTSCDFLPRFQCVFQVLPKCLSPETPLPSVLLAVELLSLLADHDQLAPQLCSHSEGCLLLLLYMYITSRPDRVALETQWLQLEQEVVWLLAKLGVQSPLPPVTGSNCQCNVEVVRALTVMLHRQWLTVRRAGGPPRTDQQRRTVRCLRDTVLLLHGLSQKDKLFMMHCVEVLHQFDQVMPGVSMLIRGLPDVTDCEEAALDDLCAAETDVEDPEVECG
Procedure: as §1

[37] = biological target: T37, p70S6K (Homo sapiens, UniProt P23443); conditions: ZY0511 1 µM, read-out: Inhibition rate
T37 construct: purchased Eurofins Pharma Discovery Services
Procedure: as §1

[38] = biological target: T38, PI3 Kinase (p110α (E545K)/p85α) (Homo sapiens, UniProt P42336, E545K); conditions: ZY0511 1 µM, read-out: Inhibition rate
T38 construct: purchased Eurofins Pharma Discovery Services (KinaseProfiler)
Procedure: as §1

[39] = biological target: T39, PI3 Kinase (p110α (E542K)/p85α) (Homo sapiens, UniProt P42336, E542K); conditions: ZY0511 1 µM, read-out: Inhibition rate
T39 construct: purchased Eurofins Pharma Discovery Services
Procedure: as §1

[40] = biological target: T40, EGFR (L858R) (Homo sapiens, UniProt P00533, L858R); conditions: ZY0511 1 µM, read-out: Inhibition rate
T40 construct: purchased Eurofins Pharma Discovery Services (KinaseProfiler)
Procedure: as §1

Question: For O=C(N/N=C1\CCc2c(Cl)ccc(O)c21)c1cccc(S(=O)(=O)N2CCOCC2)c1 [ZY0511, (E)‐N'‐(2, 3‐dihydro‐1H‐inden‐1‐ylidene) benzohydrazides], which activation at 1 µM [1] is on record?
Answer: Its activation at 1 µM is 1%.

Question: What about the IC50 [2] of the same molecule?
Answer: The IC50 was 9.8 µM.

Question: What about the inhibition at 1 µM [3] of the same molecule?
Answer: The inhibition at 1 µM was 43%.

Question: What about the inhibition at 1 µM [4] of the same molecule?
Answer: The inhibition at 1 µM was 7%.

Question: And the activation at 1 µM [5]?
Answer: The activation at 1 µM was 3%.

Question: What about the activation at 1 µM [6] of the same molecule?
Answer: Its activation at 1 µM is 10%.

Question: What about the inhibition at 1 µM [7] of the same molecule?
Answer: Its inhibition at 1 µM is 35%.

Question: And the activation at 1 µM [8]?
Answer: Its activation at 1 µM is 4%.

Question: And the Activation rate [9]?
Answer: Its Activation rate is 5%.

Question: What about the activation at 1 µM [10] of the same molecule?
Answer: The activation at 1 µM was 5%.

Question: And the inhibition at 1 µM [11]?
Answer: Its inhibition at 1 µM is 1%.

Question: And the activation at 1 µM [12]?
Answer: Its activation at 1 µM is 3%.

Question: What about the inhibition at 1 µM [13] of the same molecule?
Answer: The inhibition at 1 µM was 1%.

Question: What about the inhibition at 1 µM [14] of the same molecule?
Answer: The inhibition at 1 µM was 7%.

Question: And the inhibition at 1 µM [15]?
Answer: Its inhibition at 1 µM is 11%.

Question: What about the activation at 1 µM ([16]; IGF-1R, ZY0511 1 µM, read-out: Activation rate) of the same molecule?
Answer: The activation at 1 µM was 185%.

Question: And the IC50 ([16]; IGF‐1R)?
Answer: Its IC50 is > 10 µM.

Question: What about the inhibition at 1 µM [17] of the same molecule?
Answer: Its inhibition at 1 µM is 6%.

Question: And the activation at 1 µM [18]?
Answer: The activation at 1 µM was 3%.

Question: And the inhibition at 1 µM [19]?
Answer: The inhibition at 1 µM was 30%.

Question: What about the activation at 1 µM [20] of the same molecule?
Answer: Its activation at 1 µM is 14%.

Question: And the inhibition at 1 µM [21]?
Answer: The inhibition at 1 µM was 8%.

Question: And the inhibition at 1 µM [22]?
Answer: The inhibition at 1 µM was 6%.

Question: And the inhibition at 1 µM [23]?
Answer: The inhibition at 1 µM was 9%.

Question: What about the inhibition at 1 µM [24] of the same molecule?
Answer: The inhibition at 1 µM was 5%.

Question: What about the inhibition at 1 µM [25] of the same molecule?
Answer: The inhibition at 1 µM was 8%.

Question: And the inhibition at 1 µM [26]?
Answer: The inhibition at 1 µM was 4%.

Question: What about the inhibition at 1 µM [27] of the same molecule?
Answer: Its inhibition at 1 µM is 51%.

Question: What about the inhibition at 1 µM [28] of the same molecule?
Answer: Its inhibition at 1 µM is 11%.

Question: What about the inhibition at 1 µM [29] of the same molecule?
Answer: The inhibition at 1 µM was 8%.

Question: And the activation at 1 µM [30]?
Answer: The activation at 1 µM was 4%.

Question: What about the inhibition at 1 µM [31] of the same molecule?
Answer: The inhibition at 1 µM was 29%.

Question: And the inhibition at 1 µM [32]?
Answer: The inhibition at 1 µM was 15%.

Question: And the Activation rate [33]?
Answer: The Activation rate was 6%.

Question: What about the inhibition at 1 µM [34] of the same molecule?
Answer: Its inhibition at 1 µM is 5%.

Question: What about the inhibition at 1 µM [35] of the same molecule?
Answer: Its inhibition at 1 µM is 6%.

Question: What about the IC50 [36] of the same molecule?
Answer: Its IC50 is 9.59 µM.

Question: And the inhibition at 1 µM ([36]; ZY0511 1 µM, read-out: Inhibition rate)?
Answer: Its inhibition at 1 µM is 62%.

Question: What about the inhibition at 1 µM [37] of the same molecule?
Answer: The inhibition at 1 µM was 11%.

Question: And the inhibition at 1 µM [38]?
Answer: Its inhibition at 1 µM is 15%.

Question: And the inhibition at 1 µM [39]?
Answer: The inhibition at 1 µM was 2%.

Question: And the inhibition at 1 µM [40]?
Answer: The inhibition at 1 µM was 8%.

Reference: paper PMC10209615, “Pharmacological inhibition of LSD1 suppresses growth of hepatocellular carcinoma by inducing GADD45B” (MedComm, 2023)
